From paper PMC5808360, “Neutral Porphyrin Derivative Exerts Anticancer Activity by Targeting Cellular Topoisomerase I (Top1) and Promotes Apoptotic Cell Death without Stabilizing Top1-DNA Cleavage Complexes” (Journal of Medicinal Chemistry, 2017)

Tests used:
recombinant Top1 = target: T1, recombinant Top1 (Homo sapiens, UniProt P11387); test: Plasmid DNA relaxation assay with recombinant human Top1; assay type: biochemical; conditions: 1 μM compound, preincubated with Top1 before addition of DNA
T1 construct: made in house; host or cells: Sf-9 insect cells (recombinant baculovirus, gift of Prof. James J. Champoux)
T1 sequence (P11387 1-765): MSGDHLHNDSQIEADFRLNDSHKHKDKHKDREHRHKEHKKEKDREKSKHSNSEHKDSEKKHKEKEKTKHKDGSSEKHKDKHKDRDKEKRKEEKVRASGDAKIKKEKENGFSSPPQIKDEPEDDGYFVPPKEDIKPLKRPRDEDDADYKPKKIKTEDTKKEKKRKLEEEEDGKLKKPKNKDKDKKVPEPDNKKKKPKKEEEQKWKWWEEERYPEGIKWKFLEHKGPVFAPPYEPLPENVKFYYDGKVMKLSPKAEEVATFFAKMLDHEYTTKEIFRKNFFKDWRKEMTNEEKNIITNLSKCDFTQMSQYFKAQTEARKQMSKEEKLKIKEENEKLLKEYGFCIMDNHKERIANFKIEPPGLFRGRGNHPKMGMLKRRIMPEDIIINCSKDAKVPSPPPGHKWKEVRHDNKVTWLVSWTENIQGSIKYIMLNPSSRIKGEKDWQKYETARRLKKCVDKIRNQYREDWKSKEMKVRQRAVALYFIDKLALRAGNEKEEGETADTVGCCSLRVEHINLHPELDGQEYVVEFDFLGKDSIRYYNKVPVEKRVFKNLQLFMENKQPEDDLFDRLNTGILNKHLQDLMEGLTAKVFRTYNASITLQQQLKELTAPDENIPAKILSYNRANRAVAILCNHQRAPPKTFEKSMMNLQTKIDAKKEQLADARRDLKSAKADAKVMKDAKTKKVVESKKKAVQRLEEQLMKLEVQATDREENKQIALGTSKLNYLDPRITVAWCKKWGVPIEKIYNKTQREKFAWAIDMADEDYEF
Text: To test the inhibitory effect of the synthetic library of neutral porphyrin compounds (Scheme 1) on human Top1 activity, we performed the DNA relaxation assays in a standard assay mixture containing the plasmid DNA and recombinant Top1.[6],[13],[36],[37]Table 1 enlists the compounds with relative efficiencies of Top1 inhibition as a measure of their effective drug concentrations (EC50 value), indicating the highest activity for the selected neutral porphyrin derivative compound 8.
To examine the mechanism of Top1 inhibition with compound 8, we used variable incubation conditions in the relaxation assays (Figure 1A). […] Next, to test the impact of compound 8 interaction with Top1 in the relaxation assays, we preincubated Top1 with compound 8 at indicated concentrations (Figure 1A, lanes 5–8) separately before the addition of DNA.[6],[13],[36],[38]
The recombinant human Top1 was purified from Sf-9 insect cells, infected with the recombinant baculovirus (a kind gift from Prof. James. J. Champoux) as described previously.[6],[13]
The type 1 DNA topoisomerase is assayed by decreased mobility of the relaxed isomers of supercoiled pBS (SK^+) DNA in 1% agarose gel. […]

[1] = system: relaxed pBS (SK+) plasmid DNA; test: Topoisomerase I unwinding assay (DNA intercalation); conditions: m-AMSA and etoposide 50 and 300 μM; compound 8 50, 100, 300 μM
Method: Therefore, compound 8 interacts in reversible manner with Top1 to inhibit the plasmid relaxation activity (Figure 1).
The competence of the drug to intercalate into plasmid DNA was determined by Top1 unwinding assay.[36],[44] Assays were performed with 50 fmol of pBluscript (SK+) DNA in the presence or absence of compound 8, m-AMSA, and etoposide at indicated concentrations. Excess of DNA topoisomerase I was reacted with supercoiled plasmid DNA to generate relaxed DNA for the unwinding assays. The relaxed DNA was purified by proteolytic digestion with proteinase K at 37 °C, followed by phenol/chloroform extraction and ethanol precipitation. The unwinding assays were carried out at 37 °C for 15 min with independent compounds and were analyzed by 1% agarose gel as described above.

[2] = system: human breast adenocarcinoma cell lines (MCF7); test: Cell survival (MTT) assay, MCF7; assay type: cell-based; conditions: MCF7, CPT 5 μM 12 h prior to addition of compound 8
Method: Compound 8 was investigated for its cytotoxicity in the cancer cell lines from different tissue origin,[6],[41] as well as in the noncancerous human embryonic kidney cell lines (HEK293) and mouse embryonic fibroblasts (MEFs). […] The MCF7 breast cancer cell lines were most susceptible to compound 8.
Cell survival was assessed by 3-(4,5-dimethylthiazol-2-yl)-2,5-diphenyltetrazolium bromide (MTT) assay as discussed previously.[6] The percent inhibition of viability for each concentration of the compounds was calculated with respect to the control, and IC50 values were estimated.

`CN(C)c1ccc(-c2c3nc(c(-c4ccc(N(C)C)cc4)c4ccc([nH]4)c(-c4ccc(C(=O)O)cc4)c4nc(c(-c5ccc(C(=O)O)cc5)c5ccc2[nH]5)C=C4)C=C3)cc1` [Compound 8, 5,10-Bis(4-carboxyphenyl)-15,20-bis(4-dimethylaminophenyl)porphyrin] was tested, and the inhibition at 1 µM (recombinant Top1) was 85 to 95%, the “Negative supercoiling of relaxed plasmid DNA (intercalation)” value [1] was “failed to induce negative supercoiling of the relaxed plasmid DNA” and the “Cytotoxicity of CPT pretreatment followed by compound 8” value [2] was “not additive in cytotoxicity”.
